Where a name gives a salt, the structure may show the parent alone. Each block holds one compound with its values, some of them ahead of it.
How the values were obtained:
Format in all cases: physicochemical
[1] = Crystal particle size by light microscope (visually observed); settings: for Size of particle (light microscope), 90% of crystals below: procedure of Example 1
Description: Particle size distribution is analyzed visually using light microscope or by laser diffraction using the following method: In table 1 below there are the results of experiments using different addition temperatures. Procedure is the same as above.

[2] = Volumetric particle size distribution by laser diffraction (Coulter LS230); settings: for Particle size distribution (laser diffraction) LDP 10 / Particle size distribution (laser diffraction) LDP 50 / Particle size distribution (laser diffraction) LDP 90: procedure of Example 1
Description: Particle size distribution is analyzed visually using light microscope or by laser diffraction using the following method: Saturated 2-Propanol: To 250 ml of 2-propanol is added approx 1 g of tamsulosin HCl powder and sonicated at room temperature about 30 min. The mixture is let stand overnight, hereafter it is filtered through […] membrane filter. Sample Preparation About 30 mg of tamsulosin HCl is weighed in a 25 ml decanter. 2-4 drops of saturated 2-propanol is added to the sample and stirred with a glass rod. After that 4 ml of saturated 2-propanol is added and the sample is kept in ultra sound for 30 seconds before measuring volumetric particle size distribution using Coulter LS230, Laser Diffraction Particle Size Analyzer.

[3] = Solubility in alcoholic solvents
[4] = Example 2: 15% HCl added at 40° C., cooled to 20° C.
[5] = Example 3: Example 2 repeated, HCl addition temperature 20° C.

- Size of particle (light microscope), 90% of crystals below ([1]; HCl added at 0° C.): 90% < 3 μm
- Size of particle (light microscope), 90% of crystals below ([1]; HCl added at 10° C.): 90% < 5 μm
- Size of particle (light microscope), 90% of crystals below ([1]; HCl added at 20° C.): 90% < 10 μm
- Size of particle (light microscope), 90% of crystals below ([1]; HCl added at 30° C.): 90% < 15 μm
- Size of particle (light microscope), 90% of crystals below ([1]; HCl added at 40° C.): 90% < 30 μm
- Size of particle (light microscope), 90% of crystals below ([1]; HCl added at 80° C.): 90% < 250 μm
- Size below which 90% of the crystals are (light microscope) ([1]; hydrochloride added at e.g. 80° C.): below 250 micrometers
- Size below which 90% of the crystals are (light microscope) ([1]; hydrochloride added below about 30° C.): below 15 micrometers
- Crystal size distribution (laser diffraction) LDP 10 [2, 4]: 5 μm
- Crystal size distribution (laser diffraction) LDP 50 [2, 4]: 20 μm
- Crystal size distribution (laser diffraction) LDP 90 [2, 4]: 36 μm
- Crystal size distribution (laser diffraction) LDP 10 [2, 5]: 3 μm
- Crystal size distribution (laser diffraction) LDP 50 [2, 5]: 14 μm
- Crystal size distribution (laser diffraction) LDP 90 [2, 5]: 29 μm
- Particle size distribution (laser diffraction) LDP 10 ([2]; HCl added at 0° C.): LDP 10 = 1 μm
- Particle size distribution (laser diffraction) LDP 50 ([2]; HCl added at 0° C.): LDP 50 = 3 μm
- Particle size distribution (laser diffraction) LDP 90 ([2]; HCl added at 0° C.): LDP 90 = 12 μm
- Particle size distribution (laser diffraction) LDP 10 ([2]; HCl added at 10° C.): LDP 10 = 1 μm
- Particle size distribution (laser diffraction) LDP 50 ([2]; HCl added at 10° C.): LDP 50 = 5 μm
- Particle size distribution (laser diffraction) LDP 90 ([2]; HCl added at 10° C.): LDP 90 = 10 μm
- Particle size distribution (laser diffraction) LDP 10 ([2]; HCl added at 20° C.): LDP 10 = 2 μm
- Particle size distribution (laser diffraction) LDP 50 ([2]; HCl added at 20° C.): LDP 50 = 7 μm
- Particle size distribution (laser diffraction) LDP 90 ([2]; HCl added at 20° C.): LDP 90 = 17 μm
- Particle size distribution (laser diffraction) LDP 10 ([2]; HCl added at 30° C.): LDP 10 = 4 μm
- Particle size distribution (laser diffraction) LDP 50 ([2]; HCl added at 30° C.): LDP 50 = 15 μm
- Particle size distribution (laser diffraction) LDP 90 ([2]; HCl added at 30° C.): LDP 90 = 29 μm
- Particle size distribution (laser diffraction) LDP 10 ([2]; HCl added at 40° C.): LDP 10 = 9 μm
- Particle size distribution (laser diffraction) LDP 50 ([2]; HCl added at 40° C.): LDP 50 = 29 μm
- Particle size distribution (laser diffraction) LDP 90 ([2]; HCl added at 40° C.): LDP 90 = 55 μm
- Size below which 90% of the crystals are (laser diffraction) ([2]; addition temperature about 20° C.): below 20 micrometers
- Size below which 90% of the crystals are (laser diffraction) ([2]; addition temperature about 40° C.): below 60 micrometers
SMILES: CCOc1ccccc1OCCNC(C)Cc1ccc(OC)c(S(N)(=O)=O)c1 (centres unmarked) [tamsulosin hydrochloride, 5-[2-[[2-(2-ethoxyphenoxy)ethyl]amino]propyl]-2-methoxybenzene-sulfonamide]

- Solubility [3]: poorly soluble
SMILES: CCOc1ccccc1OCCNC(C)Cc1ccc(OC)c(S(N)(=O)=O)c1 (centres unmarked) [tamsulosin, 5-[2-[[2-(2-ethoxyphenoxy)ethyl]amino]propyl]-2-methoxybenzene-sulfonamide]

From US20090137844A1, “Crystallization process” (Fermion Oy, priority 2005, published 2009)
